Results on 2 compounds are retold here after patent US7648989B2, “Indolylmaleimide derivatives as PKC inhibitors” (Novartis AG, priority 2004, dated 2010).

One assay has as its target T1, Human recombinant PKCβ1 (Homo sapiens, UniProt P05771).
T1 construct: purchased Oxford Biomedical Research
Description: Protein Kinase Cβ1 assay. The class given is biochemical. The settings on record: selectivity ratio relative to PKCα. As for the experimental part:
(§1) The compounds of the invention are tested for their activity on different PKC isoforms according to the following method. Assay is performed in a white with clear bottom 384-well microtiterplate with non-binding surface. The reaction mixture (25 μl) contains 1.5 μM of a tridecapeptide acceptor substrate that mimics the pseudo substrate sequence of PKC α with the Ala→Ser replacement, 10 μM ^33P-ATP, 10 mM Mg(NO3)2, 0.2 mM CaCl2, PKC at a protein concentration varying from 25 to 400 ng/ml (depending on the isotype used), lipid vesicles (containing 30 mol % phosphatidylserine, 5 mol % DAG and 65 mol % phosphatidylcholine) at a final lipid concentration of 0.5 mM, in 20 mM Tris-HCl buffer pH 7.4+0.1% BSA. Incubation is performed for 60 min at room temperature.
Human recombinant PKCβ1 is obtained from Oxford Biomedical Research and is used under the assay conditions as described under Section A.1 above.

In another assay the target is T2, Human recombinant PKCδ (Homo sapiens, UniProt Q05655).
T2 construct: purchased Oxford Biomedical Research
Description: Protein Kinase Cδ assay. The settings on record: selectivity ratio relative to PKCα. The format is biochemical. The protocol:
as §1
Human recombinant PKCδ is obtained from Oxford Biomedical Research and is used under the assay conditions as described under Section A.1 above.

A further assay deals with T3, Human recombinant PKCε (Homo sapiens, UniProt Q02156).
T3 construct: purchased Oxford Biomedical Research
T3 sequence (Q02156 1-737): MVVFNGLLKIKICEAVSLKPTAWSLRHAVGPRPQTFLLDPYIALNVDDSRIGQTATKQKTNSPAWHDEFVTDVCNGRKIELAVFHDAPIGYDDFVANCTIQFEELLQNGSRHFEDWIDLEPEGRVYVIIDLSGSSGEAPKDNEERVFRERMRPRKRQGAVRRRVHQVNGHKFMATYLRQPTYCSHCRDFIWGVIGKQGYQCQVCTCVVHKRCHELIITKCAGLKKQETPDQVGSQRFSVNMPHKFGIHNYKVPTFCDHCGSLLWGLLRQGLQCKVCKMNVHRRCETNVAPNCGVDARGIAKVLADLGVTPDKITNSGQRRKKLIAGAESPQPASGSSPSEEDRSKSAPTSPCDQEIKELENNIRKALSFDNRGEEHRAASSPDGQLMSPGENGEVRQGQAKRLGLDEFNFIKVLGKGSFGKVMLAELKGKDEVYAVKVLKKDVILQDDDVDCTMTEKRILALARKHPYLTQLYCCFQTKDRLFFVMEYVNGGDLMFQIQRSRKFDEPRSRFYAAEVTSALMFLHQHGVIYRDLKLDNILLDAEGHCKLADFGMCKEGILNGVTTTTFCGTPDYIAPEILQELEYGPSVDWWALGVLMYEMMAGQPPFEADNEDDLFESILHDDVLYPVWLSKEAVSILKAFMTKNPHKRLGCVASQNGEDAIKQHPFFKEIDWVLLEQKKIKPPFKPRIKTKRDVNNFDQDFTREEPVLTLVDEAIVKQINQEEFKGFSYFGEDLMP
Description: Protein Kinase Cε assay. The conditions noted are these: selectivity ratio relative to PKCα. The class given is biochemical. The protocol: as §1
Human recombinant PKCε is obtained from Oxford Biomedical Research and is used under the assay conditions as described under Section A.1 above.

For a further assay, the target named is T4, Human recombinant PKCη (Homo sapiens, UniProt P24723).
T4 construct: purchased PanVera
Description: Protein Kinase Cη assay. The format is biochemical. The conditions noted are these: selectivity ratio relative to PKCα. As for the experimental part: as §1
Human recombinant PKCη is obtained from PanVera and is used under the assay conditions as described under Section A.1 above.

The next assay has as its target Human recombinant PKCθ (Homo sapiens, UniProt Q04759). Description: Protein Kinase Cθ assay. The class given is biochemical. The conditions noted are these: selectivity ratio relative to PKCα. As for the experimental part: as §1
Human recombinant PKCθ is used under the assay conditions as described above.

The subject of assay [1] is spleen cells from CBA and BALB/c mice (MLR); bone marrow cells from CBA mice (BM). Description: Allogeneic Mixed Lymphocyte Reaction (MLR) assay compared with Bone Marrow Proliferative (BM) assay. The class given is cell-based. The settings on record: mouse MLR and mouse bone marrow proliferation, 3H-thymidine incorporation. As for the experimental part: Bone marrow cells from CBA mice (2.5×10^4 cells per well in flat bottom tissue culture microtiter plates) are incubated in 100 μl RPMI medium containing 10% FCS, 100 U/ml penicillin, 100 μg/ml streptomycin (Gibco BRL, Basel, Switzerland), 50 μM 2-mercaptoethanol (Fluka, Buchs, Switzerland), WEHI-3 conditioned medium (7.5% v/v) and L929 conditioned medium (3% v/v) as a source of growth factors and serially diluted compounds. Seven three-fold dilution steps in duplicates per test compound are performed. After four days of incubation 1 μCi ^3H-thymidine is added. Cells are harvested after an additional five-hour incubation period, and incorporated ^3H-thymidine is determined according to standard procedures. Conditioned media are prepared as follows. WEHI-3 cells (ATCC TIB68) and L929 cells (ATCC CCL 1) are grown in RPMI medium until confluence for 4 days and one week, respectively. […]
Briefly, spleen cells from CBA and BALB/c mice (1.6×10^5 cells from each strain per well in flat bottom tissue culture microtiter plates, 3.2×10^5 in total) are incubated in RPMI medium containing 10% FCS, 100 U/ml penicillin, 100 μg/ml streptomycin (Gibco BRL, Basel, Switzerland), 50 μM 2-mercaptoethanol (Fluka, Buchs, Switzerland) and serially diluted compounds. […] Cells are harvested after an additional five-hour incubation period, and incorporated ^3H-thymidine is determined according to standard procedures. […]

Chain of Human recombinant PKCθ (Q04759 whole entry): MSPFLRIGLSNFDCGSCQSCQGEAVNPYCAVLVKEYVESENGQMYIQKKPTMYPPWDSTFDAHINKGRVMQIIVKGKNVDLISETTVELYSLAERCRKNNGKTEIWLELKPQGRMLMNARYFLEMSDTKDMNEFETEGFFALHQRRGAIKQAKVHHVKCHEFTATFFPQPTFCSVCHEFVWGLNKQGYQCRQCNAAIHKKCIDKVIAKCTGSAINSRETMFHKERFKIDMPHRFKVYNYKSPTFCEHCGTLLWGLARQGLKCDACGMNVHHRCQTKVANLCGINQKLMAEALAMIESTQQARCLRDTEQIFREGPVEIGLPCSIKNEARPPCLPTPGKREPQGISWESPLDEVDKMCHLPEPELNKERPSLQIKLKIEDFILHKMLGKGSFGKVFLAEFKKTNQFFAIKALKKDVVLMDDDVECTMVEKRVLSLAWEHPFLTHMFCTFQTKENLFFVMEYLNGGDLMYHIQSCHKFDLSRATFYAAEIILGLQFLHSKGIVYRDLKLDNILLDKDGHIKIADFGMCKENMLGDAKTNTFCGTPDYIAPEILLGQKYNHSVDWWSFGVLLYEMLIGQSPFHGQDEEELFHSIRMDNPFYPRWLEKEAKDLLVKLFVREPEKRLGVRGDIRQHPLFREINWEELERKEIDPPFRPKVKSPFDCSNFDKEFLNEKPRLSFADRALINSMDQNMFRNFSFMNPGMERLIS
T1 sequence (P05771 whole entry): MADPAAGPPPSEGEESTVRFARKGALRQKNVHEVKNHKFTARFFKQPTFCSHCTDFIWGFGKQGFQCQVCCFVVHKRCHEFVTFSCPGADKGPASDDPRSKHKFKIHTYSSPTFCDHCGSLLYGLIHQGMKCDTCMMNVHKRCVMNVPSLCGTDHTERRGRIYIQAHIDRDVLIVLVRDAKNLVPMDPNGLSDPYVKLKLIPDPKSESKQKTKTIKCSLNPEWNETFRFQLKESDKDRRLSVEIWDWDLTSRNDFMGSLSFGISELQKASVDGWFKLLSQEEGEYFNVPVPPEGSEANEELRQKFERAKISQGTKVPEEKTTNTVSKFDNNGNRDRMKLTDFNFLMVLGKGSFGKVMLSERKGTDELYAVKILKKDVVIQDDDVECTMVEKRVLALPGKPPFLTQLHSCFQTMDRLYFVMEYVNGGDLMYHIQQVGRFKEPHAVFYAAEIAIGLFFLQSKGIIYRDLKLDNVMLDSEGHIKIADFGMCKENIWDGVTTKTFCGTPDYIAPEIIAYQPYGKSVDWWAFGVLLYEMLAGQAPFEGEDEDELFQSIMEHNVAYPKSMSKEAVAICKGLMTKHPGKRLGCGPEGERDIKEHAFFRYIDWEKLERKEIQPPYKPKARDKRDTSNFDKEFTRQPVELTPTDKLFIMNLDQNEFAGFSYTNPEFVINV
T2 sequence (Q05655 whole entry): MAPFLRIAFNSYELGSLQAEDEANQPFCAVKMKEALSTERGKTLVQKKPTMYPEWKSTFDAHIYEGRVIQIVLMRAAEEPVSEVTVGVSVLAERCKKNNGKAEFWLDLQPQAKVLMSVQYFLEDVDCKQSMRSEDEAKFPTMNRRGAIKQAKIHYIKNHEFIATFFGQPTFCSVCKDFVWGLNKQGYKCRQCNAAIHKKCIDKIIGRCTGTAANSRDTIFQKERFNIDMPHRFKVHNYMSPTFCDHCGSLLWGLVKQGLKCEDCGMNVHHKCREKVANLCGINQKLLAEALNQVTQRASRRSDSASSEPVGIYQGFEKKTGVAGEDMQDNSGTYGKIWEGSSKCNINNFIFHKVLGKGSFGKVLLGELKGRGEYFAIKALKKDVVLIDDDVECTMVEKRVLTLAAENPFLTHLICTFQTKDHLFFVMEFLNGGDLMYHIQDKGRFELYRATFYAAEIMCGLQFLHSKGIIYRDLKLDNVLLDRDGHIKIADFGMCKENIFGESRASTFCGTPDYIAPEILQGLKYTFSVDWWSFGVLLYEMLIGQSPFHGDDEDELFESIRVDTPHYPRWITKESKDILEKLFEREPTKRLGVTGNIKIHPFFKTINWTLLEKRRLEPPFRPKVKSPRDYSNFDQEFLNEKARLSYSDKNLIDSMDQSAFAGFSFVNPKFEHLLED
T4 sequence (P24723 whole entry): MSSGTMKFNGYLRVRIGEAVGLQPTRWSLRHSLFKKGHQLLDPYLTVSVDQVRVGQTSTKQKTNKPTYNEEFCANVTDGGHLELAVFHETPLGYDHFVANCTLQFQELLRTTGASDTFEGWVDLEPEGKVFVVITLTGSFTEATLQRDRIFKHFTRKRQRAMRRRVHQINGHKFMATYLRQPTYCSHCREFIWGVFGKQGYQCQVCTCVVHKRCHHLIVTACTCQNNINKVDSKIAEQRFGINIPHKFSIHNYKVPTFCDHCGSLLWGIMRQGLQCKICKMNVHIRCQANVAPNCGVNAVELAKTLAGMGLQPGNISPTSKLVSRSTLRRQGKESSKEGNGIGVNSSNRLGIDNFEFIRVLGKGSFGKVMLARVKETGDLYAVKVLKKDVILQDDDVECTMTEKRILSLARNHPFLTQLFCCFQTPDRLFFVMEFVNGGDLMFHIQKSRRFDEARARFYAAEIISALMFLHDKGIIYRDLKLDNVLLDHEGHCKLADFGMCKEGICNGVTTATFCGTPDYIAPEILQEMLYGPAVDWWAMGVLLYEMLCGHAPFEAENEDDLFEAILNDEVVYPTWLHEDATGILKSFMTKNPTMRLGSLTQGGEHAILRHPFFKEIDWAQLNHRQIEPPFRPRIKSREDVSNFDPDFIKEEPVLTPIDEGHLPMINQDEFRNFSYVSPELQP

`CN(C)Cc1ccc2ccc(Cl)c(C3=C(c4cn(C)c5ccccc45)C(=O)NC3=O)c2c1` [Example 1, 3-(2-Chloro-7-dimethylaminomethyl-naphthalen-1-yl)-4-(1-methyl-1H-indol-3-yl)-pyrrole-2,5-dione]: the “β/α: ratio of the IC50 value for PKC β to the IC50 value for PKCα” value on Human recombinant PKCβ1 was 1.2. Also, at Human recombinant PKCδ, the “δ/α: ratio of the IC50 value for PKC δ to the IC50 value for PKCα” value is 66.4. The “ε/α: ratio of the IC50 value for PKC ε to the IC50 value for PKCα” value at Human recombinant PKCε is given as 122.6. Moreover, the “η/α: ratio of the IC50 value for PKC η to the IC50 value for PKCα” value at Human recombinant PKCη is listed as 140.2. Further, at Human recombinant PKCθ, the “θ/α: ratio of the IC50 value for PKC θ to the IC50 value for PKCα” value worked out at 90.8. In assay [1], the “MLR/BM: ratio of the IC50 value as determined by the MLR assay to the IC50 value as determined by the BM assay” value is reported as 21.6.

As for `Cn1c2ccccc2c2c3c(c4c5ccccc5n(CCC#N)c4c21)CNC3=O` [Example 47, Gö 6976], on Human recombinant PKCβ1, the “β/α: ratio of the IC50 value for PKC β to the IC50 value for PKCα” value was 5.3. Also, the “δ/α: ratio of the IC50 value for PKC δ to the IC50 value for PKCα” value at Human recombinant PKCδ is recorded as 120.5. The “ε/α: ratio of the IC50 value for PKC ε to the IC50 value for PKCα” value on Human recombinant PKCε turned out to be 45.8. Further, the “η/α: ratio of the IC50 value for PKC η to the IC50 value for PKCα” value on Human recombinant PKCη worked out at 118.7. Also, the “θ/α: ratio of the IC50 value for PKC θ to the IC50 value for PKCα” value at Human recombinant PKCθ turned out to be 222.3. Further, the “MLR/BM: ratio of the IC50 value as determined by the MLR assay to the IC50 value as determined by the BM assay” value in assay [1] is reported as 2.1.
